Test results from patent US7105566B2, “Methods of treatment during vascular procedures” (Allergan, Inc., priority 2002, dated 2006).
Values joined by “and” are separate entries in the source; they are usually repeats but may differ in a detail not shown here. Identical values can stand only once.

How the values were obtained:
[1] = tested on: female ZDF rats; assay: Serum triglycerides and cholesterol in female ZDF rats on a diabetogenic high fat diet, Compound 1 at 0.03-0.3 mg/kg; assay type: in vivo, rat; details: for Cholesterol day 8, 0 hr, Mean / Triglycerides day 8, 0 hr, Mean / Cholesterol day 0, 4 hr, Mean / Triglycerides day 0, 4 hr, Mean / Cholesterol day 7, 4 hr, Mean / Triglycerides day 7, 4 hr, Mean / Cholesterol day 3, 4 hr, Mean / Triglycerides day 3, 4 hr, Mean: group mean of 4 rats; for Cholesterol day 8, 0 hr, Mean / Triglycerides day 8, 0 hr, Mean / Cholesterol day 8, 0 hr / Triglycerides day 8, 0 hr: 24 hours after the last dosing; for Cholesterol day 0, 4 hr, Mean / Triglycerides day 0, 4 hr, Mean / Cholesterol day 0, 4 hr / Triglycerides day 0, 4 hr: day before dosing (baseline); for Cholesterol day 7, 4 hr, Mean / Triglycerides day 7, 4 hr, Mean / Cholesterol day 7, 4 hr / Triglycerides day 7, 4 hr: seventh day of dosing; for Cholesterol day 3, 4 hr, Mean / Triglycerides day 3, 4 hr, Mean / Cholesterol day 3, 4 hr / Triglycerides day 3, 4 hr: third day of dosing; for Cholesterol day 8, 0 hr / Triglycerides day 8, 0 hr / Cholesterol day 0, 4 hr / Triglycerides day 0, 4 hr / Cholesterol day 7, 4 hr / Triglycerides day 7, 4 hr / Cholesterol day 3, 4 hr / Triglycerides day 3, 4 hr: individual animals
Protocol: ZDF rats, which are hyperlipidemic and diabetic, were used as a model to test the effect of RAR antagonists/inhibitors on serum lipids. Female ZDF rats (10–11 weeks old) were fed a GMI 13004 diet, a diabetogenic, high fat diet, for 5–6 weeks. Compound 1 was dissolved in vehicle (2% DMSO, 98% corn oil). Compound 1 was administered at a dosage of 0.03 mg/kg, 0.1 mg/kg, and 0.3 mg/kg body weight. Dosings were performed at approximately 8 a.m. Serum was collected at approximately 12 p.m. on the day before dosing (Day 0, 4 hour); the third day of dosing (Day 3, 4 hour); the seventh day of dosing (Day 7, 4 hour); and 24 hours after the last dosing (Day 8, 0 hour). The levels of triglycerides and cholesterol in the serum samples were measured.

[2] = tested on: female ZDF rats; assay: Serum triglycerides and cholesterol in female ZDF rats, Compound 1 and Compound 2 at 10 mg/kg; assay type: in vivo, rat; details: 10 mg/kg oral
Protocol: A similar experiment to that described above was performed. Briefly, female ZDF rats (12 weeks old) were fed either a PM 5008 diet or a GMI 13004 diet. Control vehicle consisted of 2% DMSO and 98% corn oil. Compound 1 and Compound 2 were administered at a dosage of 10 mg/kg body weight. Dosings were administered at approximately 8 a.m. Serum was collected on the first day of dosing at approximately 8 a.m. (Day 1, 0 hour) and 2 p.m. (Day 1, 6 hour); the fourth day of dosing at approximately 8 a.m. (Day 4, 0 hour); and the last day of dosing at approximately 8 a.m. (Day 7, 0 hour) and 2 p.m. (Day 7, 6 hour). The levels of triglycerides and cholesterol in the serum samples were measured. The results are shown in Table 2 and are illustrated graphically in FIGS. 3A and 3B.

[3] = tested on: male cynomolgus monkeys; assay: Serum triglycerides of male cynomolgus monkeys treated by gastric intubation; assay type: in vivo, cynomolgus monkey; details: 1.0 mg/0.4 ml/kg by gastric intubation, daily; mean of 3 monkeys
Protocol: Five male cynomologus monkeys were employed in the study. […] Compound 1 is an RAR antagonist or inhibitor. The remaining two were similarly treated with a vehicle to serve as control. Serum samples were collected on days 1, 8, 15, 22 and 25 for triglyceride determination. Serum samples from days 8, 15, 22 and 25 were also assayed for the concentration of Compound 1.

[4] = tested on: male SJL mice; assay: Serum triglycerides (STG) in male SJL mice; assay type: in vivo, mouse; details: 20 mg/kg oral daily
Protocol: Male SJL mice were dosed orally with vehicle, Compound 1 (an RAR pan-antagonist), or Compound 3 (an RARE antagonist) for 4 consecutive days. The structure and synthesis of Compound 1 is described in Example I. The structure of Compound 3 is shown below, and the compound was synthesized using routine methods:
The test compounds were dissolved in corn oil and given at a dosage/volume of 20 mg/5 ml/kg.
On day 3, serum triglycerides (STG) were determined from samples collected at 7 a.m.
On day 4, animals were fasted after dosing, starting at 8 a.m. Following 6 hours of fasting, blood samples were collected prior to intravenous injection of WR-1339 at 100 mg/5 ml/kg. Additional serum samples were collected at 1 and 2 hours after WR-1339 injection. WR-1339 is a detergent that inactivates lipoprotein lipase and thus prevents the removal of triglycerides from circulation. By measuring the increase of STG after WR-1339 administration in fasted animals, the hepatic triglyceride (HTG) output during fasting can be estimated.
Due to the lack of effect of Compound 3 at 20 mg/kg, the dose was increased to 100 mg/kg in the same set of mice. STG was determined on day 3 prior to dosing (Day 3, 8 a.m.). […] To ensure that Compound 3 would be bioavailable, Compound 3 was dissolved in DMSO and given by intraperitoneal injections, once at 4 p.m. on day 3 and once at 8 a.m. on day 4, at a dosage of 100 mg/kg/injection. Administration of WR-1339 and blood collections on day 4 were similarly conducted as described above.

[5] = Stability to normal light; assay type: physicochemical
[6] = GMI 13004 diet, group mean of 5 rats, first day of dosing, 2 p.m.
[7] = GMI 13004 diet, group mean of 5 rats, first day of dosing, about 8 a.m. (baseline)
[8] = GMI 13004 diet, group mean of 5 rats, fourth day of dosing, 8 a.m.
[9] = GMI 13004 diet, group mean of 5 rats, last day of dosing, 2 p.m.
[10] = GMI 13004 diet, group mean of 5 rats, last day of dosing, 8 a.m.
[11] = GMI 13004 diet, individual animals, first day of dosing, 2 p.m.
[12] = GMI 13004 diet, individual animals, first day of dosing, about 8 a.m. (baseline)
[13] = GMI 13004 diet, individual animals, fourth day of dosing, 8 a.m.
[14] = GMI 13004 diet, individual animals, last day of dosing, 2 p.m.
[15] = GMI 13004 diet, individual animals, last day of dosing, 8 a.m.

stability to normal light [5]: relatively stable to normal light
SMILES: CCc1ccc(C2=CC(C)(C)Sc3ccc(C#Cc4ccc(C(=O)O)cc4)cc32)cc1 [Compound 1, 4-[[4-(4-ethylphenyl)-2,2-dimethyl-(2H)-thiochromen-6-yl]-ethynyl]-benzoic acid]
serum triglyceride levels as % of pre-treatment triglyceride levels ([1]; 0.03 mg/kg oral): about 59% | Cholesterol day 8, 0 hr, Mean ([1]; 0.03 mg/kg oral): 110 | Triglycerides day 8, 0 hr, Mean ([1]; 0.03 mg/kg oral): 781 | Cholesterol day 0, 4 hr, Mean ([1]; 0.03 mg/kg oral): 123 | Triglycerides day 0, 4 hr, Mean ([1]; 0.03 mg/kg oral): 1334 | Cholesterol day 7, 4 hr, Mean ([1]; 0.03 mg/kg oral): 109 | Triglycerides day 7, 4 hr, Mean ([1]; 0.03 mg/kg oral): 749 | Cholesterol day 3, 4 hr, Mean ([1]; 0.03 mg/kg oral): 105 | Triglycerides day 3, 4 hr, Mean ([1]; 0.03 mg/kg oral): 794 | Cholesterol day 8, 0 hr ([1]; 0.03 mg/kg oral): 108 (2×) and 93 and 129 | Triglycerides day 8, 0 hr ([1]; 0.03 mg/kg oral): 846 and 531 and 1230 and 516 | Cholesterol day 0, 4 hr ([1]; 0.03 mg/kg oral): 114 and 129 (2×) and 120 | Triglycerides day 0, 4 hr ([1]; 0.03 mg/kg oral): 1200 and 1245 and 1944 and 945 | Cholesterol day 7, 4 hr ([1]; 0.03 mg/kg oral): 111 and 105 and 96 and 123 | Triglycerides day 7, 4 hr ([1]; 0.03 mg/kg oral): 771 and 468 and 855 and 903 | Cholesterol day 3, 4 hr ([1]; 0.03 mg/kg oral): 93 and 96 and 129 and 102 | Triglycerides day 3, 4 hr ([1]; 0.03 mg/kg oral): 663 and 651 and 1197 and 666 | serum triglyceride levels as % of pre-treatment triglyceride levels ([1]; 0.1 mg/kg oral): ~40% | Cholesterol day 8, 0 hr, Mean ([1]; 0.1 mg/kg oral): 105 | Triglycerides day 8, 0 hr, Mean ([1]; 0.1 mg/kg oral): 479 | Cholesterol day 0, 4 hr, Mean ([1]; 0.1 mg/kg oral): 125 | Triglycerides day 0, 4 hr, Mean ([1]; 0.1 mg/kg oral): 1208 | Cholesterol day 7, 4 hr, Mean ([1]; 0.1 mg/kg oral): 107 | Triglycerides day 7, 4 hr, Mean ([1]; 0.1 mg/kg oral): 505 | Cholesterol day 3, 4 hr, Mean ([1]; 0.1 mg/kg oral): 106 | Triglycerides day 3, 4 hr, Mean ([1]; 0.1 mg/kg oral): 497 | Cholesterol day 8, 0 hr ([1]; 0.1 mg/kg oral): 102 (2×) and 105 and 111 | Triglycerides day 8, 0 hr ([1]; 0.1 mg/kg oral): 390 and 339 and 486 and 699 | Cholesterol day 0, 4 hr ([1]; 0.1 mg/kg oral): 123 (2×) and 129 and 126 | Triglycerides day 0, 4 hr ([1]; 0.1 mg/kg oral): 1284 and 993 and 1197 and 1356 | Cholesterol day 7, 4 hr ([1]; 0.1 mg/kg oral): 114 and 90 and 111 (2×) | Triglycerides day 7, 4 hr ([1]; 0.1 mg/kg oral): 429 and 384 and 618 and 588 | Cholesterol day 3, 4 hr ([1]; 0.1 mg/kg oral): 129 and 84 and 96 and 114 | Triglycerides day 3, 4 hr ([1]; 0.1 mg/kg oral): 402 and 360 and 681 and 546 | serum triglyceride levels as % of pre-treatment triglyceride levels ([1]; 0.3 mg/kg oral): ~14% | Cholesterol day 8, 0 hr, Mean ([1]; 0.3 mg/kg oral): 115 | Triglycerides day 8, 0 hr, Mean ([1]; 0.3 mg/kg oral): 215 | Cholesterol day 0, 4 hr, Mean ([1]; 0.3 mg/kg oral): 131 | Triglycerides day 0, 4 hr, Mean ([1]; 0.3 mg/kg oral): 1550 | Cholesterol day 7, 4 hr, Mean ([1]; 0.3 mg/kg oral): 119 | Triglycerides day 7, 4 hr, Mean ([1]; 0.3 mg/kg oral): 215 | Cholesterol day 3, 4 hr, Mean ([1]; 0.3 mg/kg oral): 101 | Triglycerides day 3, 4 hr, Mean ([1]; 0.3 mg/kg oral): 282 | Cholesterol day 8, 0 hr ([1]; 0.3 mg/kg oral): 102 and 120 and 123 and 114 | Triglycerides day 8, 0 hr ([1]; 0.3 mg/kg oral): 222 and 180 and 195 and 261 | Cholesterol day 0, 4 hr ([1]; 0.3 mg/kg oral): 105 and 141 and 156 and 123 | Triglycerides day 0, 4 hr ([1]; 0.3 mg/kg oral): 882 and 1725 and 2244 and 1350 | Cholesterol day 7, 4 hr ([1]; 0.3 mg/kg oral): 99 and 126 and 132 and 120 | Triglycerides day 7, 4 hr ([1]; 0.3 mg/kg oral): 195 and 222 and 267 and 174 | Cholesterol day 3, 4 hr ([1]; 0.3 mg/kg oral): 93 and 96 and 108 (2×) | Triglycerides day 3, 4 hr ([1]; 0.3 mg/kg oral): 282 and 234 and 297 and 315 | effect on serum cholesterol levels ([1]; 0.03-0.3 mg/kg oral): effective at lowering serum cholesterol levels, although the effect was more modest than observed for serum triglycerides | effect on lowering serum cholesterol [2]: more modest effect | serum triglycerides as % of pre-treatment levels [2]: about 7% | Cholesterol day 1, 6 hr, Mean [2, 6]: 107 | Triglycerides day 1, 6 hr, Mean [2, 6]: 1183 | Cholesterol day 1, 0 hr, Mean [2, 7]: 131 | Triglycerides day 1, 0 hr, Mean [2, 7]: 1410 | Cholesterol day 4, 0 hr, Mean [2, 8]: 82 | Triglycerides day 4, 0 hr, Mean [2, 8]: 138 | Cholesterol day 7, 6 hr, Mean [2, 9]: 90 | Triglycerides day 7, 6 hr, Mean [2, 9]: 86 | Cholesterol day 7, 0 hr, Mean [2, 10]: 89 | Triglycerides day 7, 0 hr, Mean [2, 10]: 72 | Cholesterol day 1, 6 hr [2, 11]: 132 and 90 (2×) and 126 and 96 | Triglycerides day 1, 6 hr [2, 11]: 1248 and 750 and 1674 and 978 and 1266 | Cholesterol day 1, 0 hr [2, 12]: 162 and 108 (2×) and 156 and 120 | Triglycerides day 1, 0 hr [2, 12]: 1770 and 1182 and 1500 and 1278 and 1320 | Cholesterol day 4, 0 hr [2, 13]: 78 and 90 (2×) and 84 and 66 | Triglycerides day 4, 0 hr [2, 13]: 174 and 132 and 114 and 102 and 168 | Cholesterol day 7, 6 hr [2, 14]: 102 and 72 and 132 and 48 and 96 | Triglycerides day 7, 6 hr [2, 14]: 96 and 66 and 60 (2×) and 150 | Cholesterol day 7, 0 hr [2, 15]: 96 (2×) and 84 and 66 and 102 | Triglycerides day 7, 0 hr [2, 15]: 78 and 96 and 60 (2×) and 66 | Serum triglycerides Day 25, Mean [3]: 24.0 mg/dL | non-fasting STG (Day 3, 8 a.m.) [4]: appeared to lower | fasting STG (Day 4, 2 p.m.) ([4]; after 6 hours of fasting): but not fasting STG
